Test [1] is described as follows: Basic taste quality sensory evaluation by trained panelists, spitting test, against 6% sucrose control (Example 1). It is filed as in vivo, human. How it is done:
In each evaluation item, the rating on a scale of −3 point to 3 point was performed, with the case where there is no difference from the control solution being 0. Quicker in sweetness onset, higher sweetness intensity, shorter lingering sweet aftertaste, lower bitterness intensity, and shorter lingering bitter aftertaste compared to the control were rated near 3 points. Slower in sweetness onset, lower sweetness intensity, longer lingering sweet aftertaste, higher bitterness intensity, and longer lingering bitter aftertaste compared to the control were rated near −3 points. That is, the closer to 0 point, the closer to the control. The evaluation was carried out by those (4 persons) who received sensory trainings as panelists by spitting test. The amount of a sweet substance contained in each sample solution was adjusted to be equal to the control solution on the calculation. […] The energy (kcal/100 ml) was calculated from the amount of the sweetener added.

Test [2] addresses T1, sweet taste receptor (T1R2/T1R3) (Homo sapiens, UniProt Q7RTX0+Q8TE23).
T1 construct: endogenous in cells; host or cells: taste cells in the mouths of 3 trained human panelists (in vivo spitting test)
T1 sequence (Q8TE23 20-839): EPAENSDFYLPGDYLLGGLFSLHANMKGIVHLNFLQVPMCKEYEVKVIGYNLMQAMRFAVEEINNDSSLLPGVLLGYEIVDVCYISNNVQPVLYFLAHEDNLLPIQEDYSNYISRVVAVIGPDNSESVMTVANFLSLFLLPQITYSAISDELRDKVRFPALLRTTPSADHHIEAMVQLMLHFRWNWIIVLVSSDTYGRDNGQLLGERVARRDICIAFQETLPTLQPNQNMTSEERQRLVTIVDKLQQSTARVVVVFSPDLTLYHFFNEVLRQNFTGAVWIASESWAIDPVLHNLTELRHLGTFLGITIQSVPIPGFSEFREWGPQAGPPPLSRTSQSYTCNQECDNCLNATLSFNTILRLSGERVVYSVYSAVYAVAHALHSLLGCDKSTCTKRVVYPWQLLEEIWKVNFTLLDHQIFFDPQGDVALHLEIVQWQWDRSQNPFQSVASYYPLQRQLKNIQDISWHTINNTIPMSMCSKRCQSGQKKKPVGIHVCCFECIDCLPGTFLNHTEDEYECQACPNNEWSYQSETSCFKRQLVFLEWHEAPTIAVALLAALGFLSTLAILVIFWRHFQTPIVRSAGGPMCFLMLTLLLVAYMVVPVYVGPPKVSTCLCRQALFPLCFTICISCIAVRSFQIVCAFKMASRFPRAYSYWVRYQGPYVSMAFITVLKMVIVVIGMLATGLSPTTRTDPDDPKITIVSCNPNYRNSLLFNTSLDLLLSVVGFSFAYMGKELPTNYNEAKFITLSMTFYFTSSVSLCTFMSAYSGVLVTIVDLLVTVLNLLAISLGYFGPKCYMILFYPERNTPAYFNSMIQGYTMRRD
T1 sequence (Q7RTX0 21-852): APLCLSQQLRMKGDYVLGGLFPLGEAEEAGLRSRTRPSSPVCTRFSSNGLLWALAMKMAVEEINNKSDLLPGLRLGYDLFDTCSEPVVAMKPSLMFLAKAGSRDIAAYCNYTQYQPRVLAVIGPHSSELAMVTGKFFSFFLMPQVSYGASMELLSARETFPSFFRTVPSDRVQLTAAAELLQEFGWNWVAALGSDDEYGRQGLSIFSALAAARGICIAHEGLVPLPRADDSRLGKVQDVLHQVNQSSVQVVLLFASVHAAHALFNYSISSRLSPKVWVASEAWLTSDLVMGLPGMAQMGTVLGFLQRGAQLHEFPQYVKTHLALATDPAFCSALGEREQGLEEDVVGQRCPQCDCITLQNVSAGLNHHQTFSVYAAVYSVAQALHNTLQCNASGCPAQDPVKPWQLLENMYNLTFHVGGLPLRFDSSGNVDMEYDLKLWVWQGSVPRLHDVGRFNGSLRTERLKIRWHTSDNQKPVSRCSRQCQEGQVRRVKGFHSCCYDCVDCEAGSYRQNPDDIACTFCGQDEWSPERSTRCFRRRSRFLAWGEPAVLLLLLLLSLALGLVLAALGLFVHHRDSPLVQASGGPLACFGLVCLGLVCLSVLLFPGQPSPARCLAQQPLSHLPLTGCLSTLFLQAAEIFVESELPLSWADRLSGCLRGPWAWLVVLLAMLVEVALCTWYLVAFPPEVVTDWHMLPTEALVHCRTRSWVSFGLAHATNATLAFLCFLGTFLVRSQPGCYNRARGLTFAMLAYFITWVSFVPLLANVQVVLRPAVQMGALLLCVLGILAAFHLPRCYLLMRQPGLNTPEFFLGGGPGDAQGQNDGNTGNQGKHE
Description: Sensory evaluation of sweetness intensity (VAS) in the co-presence of sweet taste receptor inhibitor lactisole (Example 5). It is filed as in vivo. The source says: Whether or not a certain sweet substance can trigger a sweetness response even if a sweetness response through the sweet taste receptor T1R2/T1R3 is inhibited may be determined by, for instance, measuring, by sensory evaluation or cell assay, the sweetness intensity of a solution (control solution), in which only the above sweet substance has been dissolved, and the sweetness intensity (remaining sweetness intensity) of a solution (test solution), in which a sweet taste receptor T1R2/T1R3 inhibitor (e.g., lactisole, gymnemic acid) is added for inhibiting a sweetness response through the sweet taste receptor T1R2/T1R3 to the control solution; and by comparing the sweetness intensity of the control solution and the sweetness intensity of the test solution.
The evaluation was carried out by those (3 persons) who received sensory trainings as panelists. […] Additionally, solutions having the same composition as sample solutions 1, 2, 3, and 4 except that lactisole was not added were used as control solutions 1, 2, 3, and 4. The sensory evaluation was carried out by spitting test. The sweetness intensity was rated by the VAS scale and calculated with the intensity of a solution to which lactisole was not added being 100% and the sweetness intensity of a solution to which lactisole was added as a relative value (%). The sweetness inhibitory effect by lactisole was verified by this.

[3] abbreviates: scale −3 to 3, 0 = no difference from 6% sucrose control, D-allulose 8.57 w/v %, D-arabinose 10 w/v % in pure water, 4 panelists.

SMILES strings stand for the structures.

With `O=C[C@@H](O)[C@H](O)[C@H](O)CO` [D-Arabinose], the “taste quality compared with aqueous solutions containing D-allulose” value in test [1] (aqueous solutions, Example 1) is “lower bitterness intensity and shorter lingering bitter aftertaste with the taste quality closer to sucrose”. Also, in test [1] (setting [3]), the Bitterness intensity turned out to be 0 point, the Lingering bitter aftertaste is given as −0.125 point, the Lingering sweet aftertaste worked out at 0 point and the “Quickness in sweetness onset” value is given as 0.250 point. In test [1] (setting [3]), the Sweetness intensity turned out to be 0 point. Further, in test [2] (100 ppm lactisole), the “remaining sweetness intensity when 100 ppm of lactisole was added, compared with sucrose” value was “equal to or more than that of sucrose”. For the same molecule, the “Sweetness intensity residual ratio (%) with addition of 100 ppm lactisole” value in test [2] (lactisole-free solution = 100%, sucrose 8 w/v %, sucralose 149 ppm, D- or L-arabinose 13.3 w/v %, VAS, average of n=3) turned out to be 42.47%.

(Values after patent US20240122212A1 (SUNTORY HOLDINGS LIMITED, priority 2020, published 2024).)
